This note sets out measurements from patent publication US20050233942A1, “Oxygenated dibenzo-alpha-pyrone chromoproteins” (priority 2004, published 2005).

≈ marks a conversion by molar mass, not a printed value.

Experiment [1] deals with Fe-ADP-ascorbate induced lipid peroxidation (LPO) in rat brain. Briefly: Inhibition of Fe-ADP-ascorbate induced lipid peroxidation (LPO) in rat brain homogenate. As to conditions: 37° C., 30 minutes. Type of experiment: biochemical, Albino rats (Sprague Dawley strain). The procedure: Inhibition of Fe-ADP-ascorbate induced lipid peroxidation (LPO) in rat brain by DBP and DCPs
Albino rats (Sprague Dawley strain) were sacrificed by cervical dislocation and decapitation. Brains were dissected out and 10% w/v homogenate was prepared in 0.15 M KCl. The brain homogenate was centrifuged at 1500 rpm for 10 minutes and the supernatant was used for the study. The incubation mixture contained in a final volume of 1 ml., brain homogenate (500 μl), distilled water (100 μl) or test compounds dissolved in solvents at different concentrations (10 to 100 μg/ml of the final volume). Peroxidation was initiated by adding FeCl3 (100 μM), ADP (1 mM) and ascorbate (100 μM) to give the final concentration stated. After incubating at 37° C. for 30 minutes, the reaction was stopped by adding acetic acid buffer (1.5 ml, pH 3.5) and thiobarbituric acid solution (1.5 ml, pH 7.4) to 1 ml of LPO mixture. The reaction mixture was heated at 85° C. for 30 minutes, cooled, centrifuged (2000 rpm for 10 minutes) and the absorbance of the supernatant was measured at 532 nm. IC50 values were calculated in the usual way by plotting the concentration of the test compounds versus percent inhibition of LPO.

The subject of experiment [2] is chronic stress (CS) induced gastric ulceration. The experiment is described as follows: Chronic stress (CS) induced gastric ulceration in albino rats. The note with it: 14 days. Type of experiment: in vivo, CF strain albino rats. On the procedure:
A comparative study of shilajit bioactive constituents from EPA, DHA, DBPs and DCPs, was carried out to determine their adaptogenic potency against chronic stress (CS) in albino rats. It is now increasingly becoming evident that CS of a mild but unpredictable nature which the animal is unable to cope with (inescapable stress), is clinically more relevant than acute stress even when the latter is severe in nature. It is believed that chronic, unpredictable, and inescapable stress resembles the situation faced by an individual that ultimately results in chronic stress-induced physiological perturbation and disease. Animals The investigation was carried out on CF strain albino rats, of either sex (140-180 g), housed in colony cages at an ambient temperature of 25±2° C., with a 12 h. light/12 h. dark cycle. […] The procedure of Armario et al (1993) was followed. Briefly, rats were randomly assigned to control or stress groups. Those assigned to the stress groups were subjected to 1 h foot shock, through a grid floor, every day for 14 days. The duration of each shock (2 mA) and the intervals between the shocks were randomly programmed between 3-5 sec. and 10-110 sec., respectively, to make the stress unpredictable. The shock chamber had high walls which made escape from shock impossible. EPA (Aldrich, Milw.), DHA (Sigma), DBPs and DCPs were separately suspended/dissolved in 0.3% carboxymethylcellulose(CMC) in distilled water and administered orally (p.o.), for 14 days, starting on day 1, 60 min prior to electroshock. Control animals received only the vehicle in either unstressed or the stressed rats for the same period in a volume of 2.5 ml/kg, p.o. Estimations were conducted on day 14, one hour after the last stress procedure and two hours after the last test compound or vehicle was administered. Gastric ulcerations (Bhattacharya et al., 1987). On day 14, rats were killed by decapitation the stomach was split open along the greater curvature and the numbers of discrete ulcers were noted. […] Thereafter, the pooled ulcer score was calculated according to the method of Bhattacharya et al. (1987).

Experiment [3] relates to adrenal gland ascorbic acid and corticosterone concentrations and plasma corticosterone level. Briefly: CS induced alteration of adrenal gland ascorbic acid and corticosterone and plasma corticosterone (adrenocorticoid activity). Type of experiment: in vivo, CF strain albino rats. The note with it: 5 mg/kg p.o. + CS. On the procedure:
Animals The investigation was carried out on CF strain albino rats, of either sex (140-180 g), housed in colony cages at an ambient temperature of 25±2° C., with a 12 h. light/12 h. dark cycle. Experiments were conducted between 0900 and 1400 hrs. • EPA, Eicosapentaenoic acid • DHA, Docosahexaenoic acid • DBPs, 1:1 mixture of 3-hydroxy- and 3,8-dihydroxydibenzo-alpha-pyrone • DCPs, DBP-chromoproteins
The procedure of Armario et al (1993) was followed. Briefly, rats were randomly assigned to control or stress groups. Those assigned to the stress groups were subjected to 1 h foot shock, through a grid floor, every day for 14 days. The duration of each shock (2 mA) and the intervals between the shocks were randomly programmed between 3-5 sec. and 10-110 sec., respectively, to make the stress unpredictable. The shock chamber had high walls which made escape from shock impossible.
EPA (Aldrich, Milw.), DHA (Sigma), DBPs and DCPs were separately suspended/dissolved in 0.3% carboxymethylcellulose(CMC) in distilled water and administered orally (p.o.), for 14 days, starting on day 1, 60 min prior to electroshock. […]
Adrenal gland ascorbic acid (Zenker and Bernstein, 1958) and corticosterone concentrations (Selye, 1936), and plasma corticosterone levels (Selye, 1936) were determined to substantiate the validity and intensity of the stress procedure adopted.

Consider `O=c1oc2cc(O)ccc2c2ccc(O)cc12` [3,8-Dihydroxydibenzo-alpha-pyrone], for which the “IC50 (LPO)” value in experiment [1] amounted to 30 µg/mL (≈ 131 µM).

For `O=C1O[C@H]([C@@H](O)CO)C(O)=C1O` [Ascorbic acid], the “IC50 (LPO)” value in experiment [1] was determined as 70 µg/mL (≈ 397 µM).

Take `CC/C=C\C/C=C\C/C=C\C/C=C\C/C=C\C/C=C\CCC(=O)O` [DHA, Docosahexaenoic acid]: the values for the Ulcer incidence % in experiment [2] (5 mg/kg p.o.) and in experiment [2] (10 mg/kg p.o.) were 70% and 60%, respectively.

`CC/C=C\C/C=C\C/C=C\C/C=C\C/C=C\CCCC(=O)O` [EPA, Eicosapentaenoic acid]: the Ulcer incidence % in experiment [2] (5 mg/kg p.o.) is on record as 70%. The compound further displayed a Ulcer incidence % in experiment [2] (10 mg/kg p.o.) of 60%. Also, in experiment [3], the Adrenal corticosterone is on record as 2.3 ± 0.8 μg/100 mg and the Plasma corticosterone is 22.1 ± 2.9 µg/dL.

Turning to `CC(=O)Oc1c(C)c(C)c2c(c1C)CCC(C)(CCC[C@H](C)CCC[C@H](C)CCCC(C)C)O2` (stereo partly drawn) [Vitamin E acetate], the “IC50 (LPO)” value in experiment [1] was 56 µg/mL.
